Results from ChEMBL document CHEMBL3763037 (J Med Chem, 2016).
One block for each compound: values may come before it.

What was measured:
[1] = Cmax in beagle dog at 0.01 mg/kg, po; format: ADME, organism-based, Canis lupus familiaris; design: dose 0.01 mg/kg, route oral; settings: in vivo
[2] = system: Canis familiaris; test: AUC(0 to infinity) in beagle dog at 0.01 mg/kg, po; format: ADME, organism-based, Canis lupus familiaris; design: dose 0.01 mg/kg, time infinity, route oral; settings: in vivo
[3] = AUC(0 to time) in beagle dog at 0.01 mg/kg, po; format: ADME, organism-based, Canis lupus familiaris; settings: in vivo
[4] = Volume of distribution at steady state in beagle dog at 0.025 mg/kg, iv; format: ADME, organism-based, Canis lupus familiaris; settings: in vivo, read-out: Vdss
[5] = system: Canis familiaris; test: Clast in beagle dog at 0.025 mg/kg, iv; format: ADME, organism-based, Canis lupus familiaris; settings: in vivo
[6] = Half life in beagle dog at 0.025 mg/kg, iv; format: ADME, organism-based, Canis lupus familiaris; settings: in vivo
[7] = Cmax in beagle dog at 0.025 mg/kg, iv; format: ADME, organism-based, Canis lupus familiaris; design: dose 0.025 mg/kg, route intravenous; settings: in vivo
[8] = system: Canis familiaris; test: AUC(0 to infinity) in beagle dog at 0.025 mg/kg, iv; format: ADME, organism-based, Canis lupus familiaris; design: dose 0.025 mg/kg, time infinity, route intravenous; settings: in vivo
[9] = AUC(0 to t) in beagle dog at 0.025 mg/kg, iv; format: ADME, organism-based, Canis lupus familiaris; settings: in vivo
[10] = Tmax in beagle dog at 0.01 mg/kg, po; format: ADME, organism-based, Canis lupus familiaris; settings: in vivo
[11] = Half life in beagle dog at 0.01 mg/kg, po; format: ADME, organism-based, Canis lupus familiaris; settings: in vivo
[12] = system: Canis familiaris; test: Clast in beagle dog at 0.01 mg/kg, po; format: ADME, organism-based, Canis lupus familiaris; settings: in vivo
[13] = Apparent oral volume of distribution in beagle dog at 0.01 mg/kg, po; format: ADME, organism-based, Canis lupus familiaris; settings: in vivo
[14] = system: Canis familiaris; test: Absolute oral bioavailability in beagle dog at 0.01 mg/kg; format: ADME, organism-based, Canis lupus familiaris; settings: in vivo
[15] = Clearance in beagle dog at 0.025 mg/kg, iv; format: ADME, organism-based, Canis lupus familiaris; settings: in vivo
[16] = system: Rattus norvegicus; test: (§1) Oral bioavailability in Sprague-Dawley rat at 10 mg/kg by LC-MS/MS analysis; format: ADME, organism-based; settings: in vivo
[17] = system: Rattus norvegicus; test: (§2) AUC in Sprague-Dawley rat at 10 mg/kg, po by LC-MS/MS analysis; format: ADME, organism-based; settings: in vivo
[18] = Cmax in Sprague-Dawley rat at 10 mg/kg, po by LC-MS/MS analysis; format: ADME, organism-based; design: dose 10 mg/kg, route oral; settings: in vivo
[19] = Volume of distribution at steady state in Sprague-Dawley rat at 5 mg/kg, iv by LC-MS/MS analysis; format: ADME, organism-based; settings: in vivo, read-out: Vdss
[20] = Terminal eliminational half life in Sprague-Dawley rat at 5 mg/kg, iv by LC-MS/MS analysis; format: ADME, organism-based; settings: Sprague-Dawley, in vivo, read-out: beta t1/2 (converted)
[21] = biological target: Poly [ADP-ribose] polymerase 1 (Homo sapiens, UniProt P09874); test: Inhibition of human PARP1 using [3H]NAD as substrate after 1 min by microplate scintillation counting analysis
Poly [ADP-ribose] polymerase 1, sequence (P09874 whole entry): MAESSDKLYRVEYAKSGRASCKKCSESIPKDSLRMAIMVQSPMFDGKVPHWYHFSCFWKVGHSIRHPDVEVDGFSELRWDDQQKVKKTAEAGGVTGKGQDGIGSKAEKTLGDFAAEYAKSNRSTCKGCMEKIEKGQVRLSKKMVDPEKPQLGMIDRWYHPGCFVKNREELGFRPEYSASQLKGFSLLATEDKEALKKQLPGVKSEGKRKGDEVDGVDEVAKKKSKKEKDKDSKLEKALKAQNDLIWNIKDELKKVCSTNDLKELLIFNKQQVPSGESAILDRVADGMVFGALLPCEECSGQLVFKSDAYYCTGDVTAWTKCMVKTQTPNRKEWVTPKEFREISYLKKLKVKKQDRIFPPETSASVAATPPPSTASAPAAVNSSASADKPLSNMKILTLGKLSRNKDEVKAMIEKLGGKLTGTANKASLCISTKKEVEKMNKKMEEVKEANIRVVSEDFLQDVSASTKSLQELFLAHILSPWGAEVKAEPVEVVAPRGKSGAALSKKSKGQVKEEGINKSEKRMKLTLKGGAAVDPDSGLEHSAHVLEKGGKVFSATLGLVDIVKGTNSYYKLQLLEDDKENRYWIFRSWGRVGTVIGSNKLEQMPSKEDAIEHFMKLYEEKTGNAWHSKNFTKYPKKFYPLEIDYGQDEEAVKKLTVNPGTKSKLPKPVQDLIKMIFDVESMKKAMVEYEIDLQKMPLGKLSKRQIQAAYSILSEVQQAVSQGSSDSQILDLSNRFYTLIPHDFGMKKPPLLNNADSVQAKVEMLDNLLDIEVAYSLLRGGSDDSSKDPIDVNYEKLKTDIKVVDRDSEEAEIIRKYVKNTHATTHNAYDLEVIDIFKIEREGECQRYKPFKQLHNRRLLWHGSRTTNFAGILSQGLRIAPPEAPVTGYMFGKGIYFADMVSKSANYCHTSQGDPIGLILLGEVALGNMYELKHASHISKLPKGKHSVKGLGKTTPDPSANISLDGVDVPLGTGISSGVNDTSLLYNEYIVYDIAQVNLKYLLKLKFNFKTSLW

[22] = biological target: PARP 1, 2 and 3 (Homo sapiens, UniProt P09874+Q9Y6F1+Q9UGN5); test: Inhibition of PARP in human LoVo cells assessed as inhibition of poly(ADP)-ribose polymerization for 30 mins by fluorescence assay; format: cell-based
[23] = Cytotoxicity against BRCA2-deficient human Capan1 cells; format: functional, cell-based, CAPAN-1; settings: Homo sapiens, CAPAN-1
[24] = system: LoVo; test: cells; settings: Homo sapiens, 120 h
[25] = system: MRC5; test: Cytotoxicity against human MRC5 cells; format: cell-based; settings: Homo sapiens, MRC5
[26] = Half life in rat liver microsomes; format: ADME
[27] = as §1; format: ADME, organism-based; settings: Sprague-Dawley, in vivo
[28] = as §2; format: ADME, organism-based; settings: Sprague-Dawley, in vivo
[29] = Clearance in Sprague-Dawley rat at 5 mg/kg, iv by LC-MS/MS analysis; format: ADME, organism-based; settings: in vivo

F [16]: 68% | AUC [17]: 1810 ng·h/mL | Cmax [18]: 3990 ng/mL | Vd [19]: 0.73 L/kg | half-life [20]: 2.1 h | IC50 [21]: 0.0016 µM | EC50 [22]: 0.0179 µM | GI50 [24]: 0.025 µM
Structure (SMILES): Cn1ccnc1[C@H]1c2n[nH]c(=O)c3cc(F)cc(c23)N[C@@H]1c1ccc(F)cc1
EC50 [23]: 0.039 µM

IC50 [21]: 0.00263 µM | EC50 [22]: 0.0061 µM | half-life [26]: 1.37 h | GI50 [24]: 94 µM
Structure (SMILES): CN(C)Cc1ccc(C2Nc3cc(F)cc4c(=O)[nH]nc(c34)C2c2ccc(F)cc2)cc1 (stereo unspecified)
EC50 [23]: 0.134 µM

IC50 [21]: 0.00235 µM | EC50 [22]: 0.0169 µM | half-life [26]: 1.48 h | GI50 [24]: 97 µM
Structure (SMILES): Cn1ccnc1C1c2n[nH]c(=O)c3cccc(c23)NC1c1ccccc1 (stereo unspecified)
EC50 [23]: 0.36 µM

bioavailability [27]: 47% | AUC [28]: 39900 ng·h/mL | Cmax [18]: 7770 ng/mL | Vd [19]: 0.39 L/kg | clearance [29]: 2 mL/min/kg | half-life [20]: 2.44 h | IC50 [21]: 0.00146 µM | EC50 [22]: 0.0051 µM | GI50 [24]: 0.041 µM
Structure (SMILES): Cn1ncnc1[C@H]1c2n[nH]c(=O)c3cccc(c23)N[C@@H]1c1ccc(F)cc1
EC50 [23]: 0.037 µM

Further lines, the compound ahead of its results:

Structure (SMILES): Cc1ccc(S(=O)(=O)O)cc1.Cn1ncnc1[C@H]1c2n[nH]c(=O)c3cc(F)cc(c23)N[C@@H]1c1ccc(F)cc1 [TALAZOPARIB TOSYLATE]
Cmax [1]: 68 ng/mL | AUC [2]: 611 ng·h/mL | AUC [3]: 600 ng·h/mL | Vd [4]: 4.67 L/kg | Clast [5]: 0.182 ng/mL | half-life [6]: 26.7 h | Cmax [7]: 18.9 ng/mL | AUC [8]: 135 ng·h/mL | AUC(0-t) [9]: 129 ng·h/mL | Tmax [10]: 4 h | half-life [11]: 24.4 h | Clast [12]: 0.313 ng/mL | Vd/F [13]: 5.81 L/kg | F [14]: 118.7% | clearance [15]: 3.3 mL/min/kg

Structure (SMILES): CNCc1ccc(-c2[nH]c3cc(F)cc4c3c2CCNC4=O)cc1 [RUCAPARIB]
EC50 [25]: 8.53 µM | GI50 [24]: 0.144 µM

Structure (SMILES): CN1CCN(Cc2ccc(C3Nc4cccc5c(=O)[nH]nc(c45)C3c3ccccc3)cc2)CC1 (stereo unspecified)
IC50 [21]: 0.00202 µM | EC50 [22]: 0.0406 µM | EC50 [23]: 0.603 µM | half-life [26]: 0.317 h | GI50 [24]: 54.6 µM
